# Values of other authors, collected in patent publication US10849951B2, “Use of PHY906 as treatment for inflammatory bowel disease and/or irritable bowel syndrome” (priority 2007, dated 2020).
# Key:
# [1] = biological target: bacterial 13-glucuronidase (Escherichia coli, UniProt P05804)
# [2] = test system: patients; settings: NCI Common Toxicity criteria
# [3] = test system: perineal Crohn's; settings: human, in vivo
# Sequence of bacterial 13-glucuronidase (P05804 whole entry): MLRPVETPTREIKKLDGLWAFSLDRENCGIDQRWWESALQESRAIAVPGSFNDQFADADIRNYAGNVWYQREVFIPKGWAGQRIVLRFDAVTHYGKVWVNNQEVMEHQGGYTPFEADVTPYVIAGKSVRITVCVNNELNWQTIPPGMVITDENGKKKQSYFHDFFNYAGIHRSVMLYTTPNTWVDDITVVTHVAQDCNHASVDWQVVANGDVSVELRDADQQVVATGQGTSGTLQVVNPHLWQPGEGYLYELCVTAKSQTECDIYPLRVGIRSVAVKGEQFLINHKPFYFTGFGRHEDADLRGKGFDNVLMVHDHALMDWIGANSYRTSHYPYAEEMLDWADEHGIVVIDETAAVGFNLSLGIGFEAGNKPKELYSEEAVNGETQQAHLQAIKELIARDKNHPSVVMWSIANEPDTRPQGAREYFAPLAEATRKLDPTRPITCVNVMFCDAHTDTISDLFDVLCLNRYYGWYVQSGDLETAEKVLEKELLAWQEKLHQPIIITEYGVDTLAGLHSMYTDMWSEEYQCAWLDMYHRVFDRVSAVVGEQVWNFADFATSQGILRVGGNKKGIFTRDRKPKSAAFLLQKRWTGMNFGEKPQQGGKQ
structure (smiles),measurement,setting,value
O=c1cc(-c2ccccc2)oc2cc(O)c(O)c(O)c12 [Baicalein],inhibition of bacterial 13-glucuronidase,[1],feedback inhibitor
"CCc1c2c(nc3ccc(OC(=O)N4CCC(N5CCCCC5)CC4)cc13)-c1cc3c(c(=O)n1C2)COC(=O)[C@]3(O)CC [CPT-11, irinotecan]",patients with diarrhea classified grade 3 (serious) or grade 4 (life-threatening),[2],about 40%
"Cc1ncc([N+](=O)[O-])n1CCO [Metronidazole, metronidazole]",cases in which managing perineal Crohn's is effective,[3],over 50%
